In the NIST ThermoML archive (doi:10.1021/je900216m):
± gives the expanded uncertainty stated by the source.

Assay: osmotic coefficient (dimensionless); mn = molality of the nth substance listed, in mol/kg
Conditions: Liquid, isopiestic method

CCCC[N+](CC)(CC)CC.[Br-] [butyltriethyl ammonium bromide] + O
Conditions	osmotic coefficient
283.15 K, m1 = 0.1033	0.9271 ± 0.0029
283.15 K, m1 = 0.1376	0.9231 ± 0.0031
283.15 K, m1 = 0.2187	0.9188 ± 0.0033
283.15 K, m1 = 0.2974	0.9175 ± 0.0034
283.15 K, m1 = 0.3319	0.9169 ± 0.0035
283.15 K, m1 = 0.4688	0.92 ± 0.0034
283.15 K, m1 = 0.555	0.9241 ± 0.0034
283.15 K, m1 = 0.679	0.9288 ± 0.0033
283.15 K, m1 = 0.78	0.934 ± 0.0032
283.15 K, m1 = 0.8485	0.9393 ± 0.0031
283.15 K, m1 = 0.9497	0.9464 ± 0.0029
288.15 K, m1 = 0.1039	0.9158 ± 0.0033
288.15 K, m1 = 0.1569	0.904 ± 0.0038
288.15 K, m1 = 0.2793	0.8916 ± 0.0043
288.15 K, m1 = 0.3789	0.8853 ± 0.0046
288.15 K, m1 = 0.4818	0.884 ± 0.0047
288.15 K, m1 = 0.6069	0.8837 ± 0.0048
288.15 K, m1 = 0.6983	0.8853 ± 0.0048
288.15 K, m1 = 0.8052	0.8899 ± 0.0046
288.15 K, m1 = 0.8847	0.8929 ± 0.0046
288.15 K, m1 = 1.028	0.8989 ± 0.0044

CCCC[N+](CC)(CC)CCCC.[Br-] [dibutyldiethylammonium bromdie] + O
Conditions	osmotic coefficient
283.15 K, m1 = 0.1034	0.9261 ± 0.0029
283.15 K, m1 = 0.1376	0.9232 ± 0.003
283.15 K, m1 = 0.2189	0.9178 ± 0.0033
283.15 K, m1 = 0.2978	0.9163 ± 0.0033
283.15 K, m1 = 0.3324	0.9156 ± 0.0034
283.15 K, m1 = 0.4702	0.9172 ± 0.0033
283.15 K, m1 = 0.5576	0.9198 ± 0.0033
283.15 K, m1 = 0.6825	0.924 ± 0.0032
283.15 K, m1 = 0.7842	0.9289 ± 0.003
283.15 K, m1 = 0.8544	0.9328 ± 0.0029
283.15 K, m1 = 0.9569	0.9393 ± 0.0026
288.15 K, m1 = 0.1041	0.9139 ± 0.0034
288.15 K, m1 = 0.1562	0.908 ± 0.0036
288.15 K, m1 = 0.2772	0.8982 ± 0.004
288.15 K, m1 = 0.3749	0.8947 ± 0.0041
288.15 K, m1 = 0.4763	0.8941 ± 0.0042
288.15 K, m1 = 0.6002	0.8934 ± 0.0043
288.15 K, m1 = 0.6897	0.8963 ± 0.0042
288.15 K, m1 = 0.7971	0.8989 ± 0.0041
288.15 K, m1 = 0.8741	0.9038 ± 0.0039
288.15 K, m1 = 1.012	0.9132 ± 0.0036

CC(C)C[N+](CC(C)C)(CC(C)C)CC(C)C.[Br-] [tetra-iso-butyl ammonium bromide] + O
Conditions	osmotic coefficient
283.15 K, m1 = 0.1035	0.9253 ± 0.0029
283.15 K, m1 = 0.1376	0.9231 ± 0.0031
283.15 K, m1 = 0.2192	0.9167 ± 0.0034
283.15 K, m1 = 0.2986	0.9138 ± 0.0035
283.15 K, m1 = 0.3332	0.9133 ± 0.0036
283.15 K, m1 = 0.4724	0.9129 ± 0.0037
283.15 K, m1 = 0.5608	0.9146 ± 0.0037
283.15 K, m1 = 0.6871	0.9179 ± 0.0037
283.15 K, m1 = 0.7904	0.9217 ± 0.0036
283.15 K, m1 = 0.8617	0.9249 ± 0.0035
283.15 K, m1 = 0.9658	0.9307 ± 0.0034
288.15 K, m1 = 0.1041	0.9142 ± 0.0034
288.15 K, m1 = 0.1569	0.9038 ± 0.0038
288.15 K, m1 = 0.2795	0.8908 ± 0.0043
288.15 K, m1 = 0.3804	0.8818 ± 0.0047
288.15 K, m1 = 0.4856	0.877 ± 0.005
288.15 K, m1 = 0.6127	0.8752 ± 0.0051
288.15 K, m1 = 0.7082	0.8728 ± 0.0052
288.15 K, m1 = 0.8192	0.8747 ± 0.0052
288.15 K, m1 = 0.9012	0.8766 ± 0.0052
288.15 K, m1 = 1.05	0.8804 ± 0.0051

CCC(C)[N+](C(C)CC)(C(C)CC)C(C)CC.[Br-] (stereo not given) [tetra-sec-butyl ammonium bromide] + O
Conditions	osmotic coefficient
283.15 K, m1 = 0.1033	0.927 ± 0.0029
283.15 K, m1 = 0.1377	0.9222 ± 0.0031
283.15 K, m1 = 0.2195	0.9154 ± 0.0035
283.15 K, m1 = 0.2991	0.9123 ± 0.0036
283.15 K, m1 = 0.3339	0.9114 ± 0.0037
283.15 K, m1 = 0.4732	0.9114 ± 0.0039
283.15 K, m1 = 0.5619	0.9128 ± 0.0039
283.15 K, m1 = 0.6887	0.9157 ± 0.0039
283.15 K, m1 = 0.7927	0.919 ± 0.0039
283.15 K, m1 = 0.8651	0.9213 ± 0.0038
283.15 K, m1 = 0.9705	0.9261 ± 0.0037
288.15 K, m1 = 0.1042	0.913 ± 0.0034
288.15 K, m1 = 0.1572	0.9021 ± 0.0039
288.15 K, m1 = 0.2811	0.8859 ± 0.0046
288.15 K, m1 = 0.3824	0.8772 ± 0.0049
288.15 K, m1 = 0.4912	0.867 ± 0.0054
288.15 K, m1 = 0.6212	0.8632 ± 0.0056
288.15 K, m1 = 0.7168	0.8624 ± 0.0057
288.15 K, m1 = 0.8295	0.8638 ± 0.0057
288.15 K, m1 = 0.9119	0.8663 ± 0.0056
288.15 K, m1 = 1.06	0.8713 ± 0.0055

CCCC[N+](CCCC)(CCCC)CCCC.[Br-] [tetrabutylammonium bromide] + O
Conditions	osmotic coefficient
283.15 K, m1 = 0.1035	0.9257 ± 0.003
283.15 K, m1 = 0.138	0.9204 ± 0.0032
283.15 K, m1 = 0.2197	0.9146 ± 0.0034
283.15 K, m1 = 0.2995	0.9111 ± 0.0037
283.15 K, m1 = 0.3343	0.9104 ± 0.0037
283.15 K, m1 = 0.4739	0.9101 ± 0.004
283.15 K, m1 = 0.5629	0.9111 ± 0.0042
283.15 K, m1 = 0.6903	0.9136 ± 0.0042
283.15 K, m1 = 0.7953	0.916 ± 0.0042
283.15 K, m1 = 0.8682	0.918 ± 0.0042
283.15 K, m1 = 0.9751	0.9217 ± 0.0041
288.15 K, m1 = 0.1045	0.9107 ± 0.0035
288.15 K, m1 = 0.1582	0.8964 ± 0.0041
288.15 K, m1 = 0.2837	0.8776 ± 0.0049
288.15 K, m1 = 0.3864	0.8681 ± 0.0053
288.15 K, m1 = 0.4954	0.8596 ± 0.0058
288.15 K, m1 = 0.628	0.8539 ± 0.0062
288.15 K, m1 = 0.7262	0.8512 ± 0.0063
288.15 K, m1 = 0.8429	0.8501 ± 0.0064
288.15 K, m1 = 0.9276	0.8517 ± 0.0064
288.15 K, m1 = 1.079	0.8566 ± 0.0062
